Measured values: the supplement of paper PMC10307832

Columns and labels:
Test in all cases: relative viability (nuclei count vs DMSO), 5 days (fraction); higher = more cells survive
[1] = compound: CC1=C(CC(=O)O)c2cc(F)ccc2/C1=C\c1ccc([S+](C)[O-])cc1 [Sulindac] + CS(=O)(=O)CCNCc1ccc(-c2ccc3ncnc(Nc4ccc(OCc5cccc(F)c5)c(Cl)c4)c3c2)o1 [Lapatinib] (partner 2 µM)
In short: (§1)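 Lung cancer cell lines were seeded in 1536-well plates and dosed by pin tool the next day, with either a single drug or a fixed anchor-drug dose combined with five library-drug doses (not always all listed) spaced in √10 steps. Five days later, one step fixed the cells and stained their nuclei (final 0.05% Triton X-100, 1% formaldehyde, 1 ug/ml Hoechst), and nuclei were counted on 4× images. Relative viability is the nuclei count in treated wells divided by the count in vehicle wells, and each value is the median of duplicate plates.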

[2] = compound: O=c1[nH]cc(F)c(=O)[nH]1 [5-Fluorouracil] + O=C(c1cc(Cc2n[nH]c(=O)c3ccccc23)ccc1F)N1CCN(C(=O)C2CC2)CC1 [Olaparib] (partner 8 µM)
In short: as §1

[3] = compound: CC1=C(CC(=O)O)c2cc(F)ccc2/C1=C\c1ccc([S+](C)[O-])cc1 [Sulindac] + NC(=O)Nc1cc(-c2cccc(F)c2)sc1C(=O)N[C@H]1CCCNC1 [AZD7762] (partner 0.2 µM)
In short: as §1

[4] = compound: O=c1[nH]cc(F)c(=O)[nH]1 [5-Fluorouracil] + CC(=O)Nc1cccc(-n2c(=O)n(C3CC3)c(=O)c3c(Nc4ccc(I)cc4F)n(C)c(=O)c(C)c32)c1 [Trametinib] (partner 0.02 µM)
In short: as §1

Row | Cell Line | relative viability ([1]; first compound 0.08 µM) | relative viability ([1]; first compound 0.253 µM) | relative viability ([1]; first compound 0.8 µM) | relative viability ([1]; first compound 2.53 µM) | relative viability ([1]; first compound 8 µM) | relative viability ([2]; first compound 0.02 µM) | relative viability ([2]; first compound 0.2 µM) | relative viability ([2]; first compound 0.6325 µM) | relative viability ([2]; first compound 2 µM) | relative viability ([3]; first compound 0.08 µM) | relative viability ([3]; first compound 0.253 µM) | relative viability ([3]; first compound 0.8 µM) | relative viability ([3]; first compound 2.53 µM) | relative viability ([3]; first compound 8 µM) | relative viability ([4]; first compound 0.02 µM) | relative viability ([4]; first compound 0.2 µM) | relative viability ([4]; first compound 0.6325 µM) | relative viability ([4]; first compound 2 µM)
1 | LU99A | 1.33 | 1.11 | 0.854 | 0.869 | 1.01 | 0.307 | 0.259 | 0.267 | 0.226 | 0.324 | 0.467 | 0.433 | 0.327 | 0.404 | 0.655 | 0.559 | 0.374 | 0.268
2 | LXF-289 | 0.956 | 0.972 | 0.87 | 0.919 | 0.941 | 1.05 | 0.778 | 0.439 | 0.334 | 1.15 | 1.15 | 0.987 | 1.21 | 1.24 | 0.674 | 0.591 | 0.346 | 0.33
3 | NCI-H23 | 1.26 | 1.17 | 0.996 | 0.98 | 1.3 | 0.317 | 0.373 | 0.256 | 0.229 | 0.294 | 0.22 | 0.273 | 0.256 | 0.232 | 0.483 | 0.331 | 0.285 | 0.211
4 | NCI-H322M | 0.632 | 0.626 | 0.523 | 0.565 | 0.561 | 0.838 | 0.764 | 0.618 | 0.531 | 0.469 | 0.42 | 0.573 | 0.575 | 0.546 | 0.532 | 0.664 | 0.463 | 0.456
5 | NCI-H358 | 0.457 | 0.439 | 0.474 | 0.44 | 0.564 | 0.637 | 0.686 | 0.612 | 0.39 | 0.45 | 0.517 |  | 0.427 | 0.651 | 0.17 | 0.124 | 0.123 | 0.137
6 | NCI-H460 | 1.97 | 1.38 |  | 1.12 | 1.19 | 0.326 | 0.347 | 0.155 | 0.105 | 0.984 | 0.639 | 0.812 | 0.64 | 0.846 | 0.219 | 0.144 | 0.0819 | 0.0387
7 | NCI-H596 | 1.02 | 0.983 | 1.01 | 0.973 | 1.21 | 0.66 | 0.694 | 0.57 | 0.491 | 1.06 | 1.16 |  | 1.23 | 1.27 | 0.845 | 0.649 | 0.632 | 0.479
8 | NCI-H647 | 1.22 | 1.13 | 0.651 | 1.38 | 1.32 | 0.577 | 0.501 | 0.434 | 0.407 | 0.592 | 0.5 | 0.362 | 0.575 | 0.488 | 0.444 | 0.479 | 0.406 | 0.393
9 | NCI-H650 | 1.08 | 0.977 | 0.598 | 0.767 | 1.07 | 0.282 | 0.323 | 0.26 | 0.293 | 1.03 | 0.899 | 0.766 | 0.914 | 0.978 | 0.914 | 0.701 | 0.407 | 0.341
10 | NCI-H727 | 0.968 | 0.799 | 0.767 | 0.699 | 1.19 | 0.748 | 0.821 | 0.747 | 0.593 | 0.575 | 0.643 | 0.473 | 0.582 | 0.616 | 0.361 | 0.384 | 0.363 | 0.389
11 | NCI-H838 | 1.21 | 1.02 | 0.638 | 0.972 | 1.03 | 0.801 | 0.691 | 0.45 | 0.296 | 1.05 | 0.976 | 0.843 | 0.886 | 1.04 | 0.482 | 0.579 | 0.373 | 0.246
12 | NCI-H1355 | 1.16 | 1.05 | 0.881 | 0.956 | 1.13 | 0.716 | 0.485 | 0.253 | 0.225 | 0.842 | 0.748 | 0.71 | 0.765 | 0.858 | 0.443 | 0.387 | 0.265 | 0.242
13 | NCI-H1395 | 1.2 | 1.08 | 1.01 | 0.8 | 1.15 | 0.481 | 0.445 | 0.557 | 0.479 | 0.387 | 0.378 | 0.4 | 0.401 | 0.401 | 1.03 | 0.987 | 1.12 | 1.11
14 | NCI-H1437 | 0.884 | 1.01 | 0.593 | 0.856 | 1.1 | 0.517 | 0.285 | 0.222 | 0.217 | 1.18 | 1.12 | 1.1 | 1.14 | 1.11 | 0.364 | 0.247 | 0.22 | 0.18
15 | NCI-H1651 | 1.07 | 0.836 | 0.736 | 0.829 | 1.09 | 0.172 | 0.2 | 0.188 | 0.175 | 0.516 | 0.508 | 0.318 | 0.492 | 0.506 | 0.879 | 0.684 | 0.325 | 0.267
16 | NCI-H1666 |  | 0.738 | 0.491 | 0.696 | 0.753 | 0.861 | 0.67 | 0.647 | 0.625 | 0.869 | 0.878 | 0.776 | 0.847 | 0.945 | 0.891 | 0.714 | 0.601 | 0.56
17 | NCI-H1734 | 1.06 | 1.08 | 0.893 | 0.986 | 1.44 | 0.586 | 0.667 | 0.53 | 0.393 | 0.646 | 0.587 | 0.519 | 0.621 | 0.73 | 0.709 | 0.682 | 0.584 | 0.415
18 | NCI-H1755 | 1.34 | 1.04 | 0.912 | 1.06 | 1.19 | 0.817 | 0.665 | 0.374 | 0.319 | 0.424 | 0.429 | 0.628 | 0.456 | 0.498 | 0.796 | 0.688 | 0.417 | 0.37
19 | NCI-H1792 | 1.13 | 0.982 |  | 0.947 | 1.12 | 0.467 | 0.54 | 0.169 | 0.175 | 0.98 | 0.647 |  | 0.766 | 0.703 | 0.367 | 0.278 | 0.172 | 0.167
20 | NCI-H1793 | 0.731 | 0.778 | 0.533 | 0.795 | 0.787 | 0.787 | 0.9 | 0.613 | 0.483 | 0.41 | 0.537 |  | 0.441 | 0.33 | 0.398 | 0.49 | 0.373 | 0.38
21 | NCI-H1915 | 1.24 | 1.09 | 0.842 | 0.913 | 1.1 | 0.197 | 0.269 | 0.22 | 0.211 | 0.703 | 0.734 | 0.645 | 0.664 | 0.761 | 0.28 | 0.325 | 0.253 | 0.283
22 | NCI-H1944 | 0.882 | 0.906 | 0.696 | 0.842 | 0.885 | 0.389 | 0.379 | 0.298 | 0.187 | 0.519 | 0.382 | 0.526 | 0.512 | 0.551 | 0.412 | 0.333 | 0.244 | 0.195
23 | NCI-H1975 | 1.27 | 1.03 |  | 0.952 | 1.01 | 0.805 | 0.736 | 0.356 | 0.21 | 0.868 | 0.715 | 0.699 | 0.695 | 0.819 | 0.307 | 0.548 | 0.313 | 0.238
24 | NCI-H1993 | 0.837 | 0.801 | 0.757 | 0.77 | 0.805 | 1.15 | 0.743 | 0.525 | 0.445 | 0.717 | 0.854 | 0.606 | 0.695 | 0.854 | 0.379 | 0.524 | 0.486 | 0.487
25 | NCI-H2085 | 0.746 | 0.693 | 0.668 | 0.69 | 0.777 | 0.743 | 0.784 | 0.693 | 0.677 | 0.904 | 0.988 | 0.834 | 0.945 | 0.95 | 0.412 | 0.607 | 0.563 | 0.563
26 | NCI-H2087 | 1.28 | 1.04 | 1.27 | 1.08 | 1.22 | 0.577 | 0.607 | 0.45 | 0.319 | 1.73 | 1.52 | 0.983 | 1.48 | 1.4 | 0.216 | 0.157 | 0.167 | 0.216
27 | NCI-H2126 | 0.793 | 0.722 | 0.758 | 0.773 | 0.861 | 0.808 | 0.374 | 0.329 | 0.254 | 1.12 | 1.03 | 0.889 | 1.01 | 1.09 | 0.579 | 0.305 | 0.27 | 0.257
28 | NCI-H2170 | 0.249 | 0.282 | 0.251 | 0.272 | 0.286 | 0.597 | 0.545 | 0.339 | 0.289 | 1.06 | 0.91 | 0.765 | 1.01 | 0.884 | 0.976 | 0.78 | 0.478 | 0.312
29 | NCI-H2347 | 0.986 | 0.95 | 0.694 | 0.85 | 1.06 | 0.62 | 0.489 | 0.456 | 0.445 | 0.711 | 0.778 | 0.653 | 0.737 | 0.817 | 0.281 | 0.256 | 0.293 | 0.166
30 | NCI-H2405 | 1.24 | 1.11 | 0.969 | 1.02 | 1.39 | 0.808 | 0.962 | 0.891 | 0.618 | 0.86 | 0.811 | 0.642 | 0.691 | 0.995 | 0.629 | 0.692 | 0.579 | 0.6
